Assay results from patent US20240398774A1, “METHODS OF TREATING INFLAMMATORY DISEASES WITH A SELECTIVE GLUCOCORTICOID RECEPTOR MODULATOR” (ASTRAZENECA AB, priority 2021, published 2024).

Assays:
[1] = system: hypothalamic-pituitary-adrenal (HPA) axis; assay: morning serum cortisol and adrenocorticotropic hormone in type 2 diabetes patients; assay type: in vivo, human
Method: (§1) Study design. This was a randomized, double blind, multi-center, double dummy, and two-way cross-over study. The aim of the study was to compare the effect on glycaemic control and incretin response at equipotent doses of AZD9567 and prednisolone in diabetes patients. The AZD9567 and prednisolone doses were predicted to be equipotent, based on an ex vivo efficacy analysis from previous phase 1 studies. The study consisted of a total of three cohorts. Each cohort was treated for two 72-hour periods in a cross-over design, with a 3-week washout period between treatment periods as illustrated in FIG. 1. The total length of participant engagement (from screening to follow-up) is 79 days.
Cohort 1 included 27 patients. The patents were randomized in a ratio of 1:1 to receive 72 mg/day (oral suspension) AZD9567 and 40 mg/day prednisolone over two 72 hour periods in a cross over design: 72 mg AZD9567 for 3 consecutive days of each treatment period followed by 40 mg prednisolone for 3 consecutive days of each treatment period [AB sequence group], or 40 mg prednisolone for 3 consecutive days of each treatment period followed by 72 mg AZD9567 for 3 consecutive days of each treatment period [BA sequence group]. […]

[2] = system: transcription of tyrosine aminotransferase (TAT); assay: TAT transcription in human hepatocytes in vitro; assay type: cell-based; details: for upregulation of transcription of tyrosine aminotransferase (TAT): human hepatocytes in vitro
[3] = Continuous Glucose Monitoring (CGM) in type 2 diabetes patients, clinical trial NCT04556760; assay type: in vivo, human
Method: (§2) Patient population. In clinical trial NCT04556760, eligible patients were 18 to 75 years old. Eligible patients had diagnosis of type 2 diabetes mellitus for 6 months prior to screening, such as HbAlc in the diabetes range or fasting plasma glucose 126-220 mg/dL. Eligible patients were on stable metformin therapy for at least 4 weeks, where no significant dose change (increase or decrease≥500 mg/day) has occurred prior to screening and HbAlc 6%-9.5%, or on dual therapy with metformin in combination with SGLT2i or DPP4i and HbAlc 6%-8%. Participants on dual therapy required 2 weeks wash-out of SGLT2i or DPP4i.
as §1
(§3) Cohort 1 included 27 patients. The patents were randomized in a ratio of 1:1 to receive 72 mg/day (oral suspension) AZD9567 and 40 mg/day prednisolone over two 72 hour periods in a cross over design: 72 mg AZD9567 for 3 consecutive days of each treatment period followed by 40 mg prednisolone for 3 consecutive days of each treatment period [AB sequence group], or 40 mg prednisolone for 3 consecutive days of each treatment period followed by 72 mg AZD9567 for 3 consecutive days of each treatment period [BA sequence group].
Cohort 2 included 8 patients. The patents were randomized in a ratio of 1:1 to receive 40 mg/day (oral suspension) AZD9567 and prednisolone over two 72 hour periods in a cross over design: 40 mg AZD9567 for 3 consecutive days of each treatment period followed by 20 mg prednisolone for 3 consecutive days of each treatment period [AB sequence group] or 20 mg prednisolone for 3 consecutive days of each treatment period followed by 40 mg AZD9567 for 3 consecutive days of each treatment period [BA sequence group].
Cohort 3 included 9 patients. The patents were randomized in a ratio of 1:1 to receive placebo and 5 mg/day prednisolone over two 72 hour periods in a cross over design: placebo for 3 consecutive days of each treatment period followed by 5 mg prednisolone for 3 consecutive days of each treatment period [AB sequence group] or 5 mg prednisolone for 3 consecutive days of each treatment period followed by placebo for 3 consecutive days of each treatment period [BA sequence group]).
CGM includes a normal diet and is reflective of daily glucose control under “real world” conditions. […]

[4] = system: lipopolysaccharide (LPS)-stimulated tumour necrosis factor-α (TNFα) release; assay: ex vivo inhibition of LPS-stimulated TNFα release in human whole blood; assay type: cell-based; details: compared with prednisolone
[5] = Mixed Meal Tolerance Test (MMTT) in type 2 diabetes patients, clinical trial NCT04556760; assay type: in vivo, human; details: for MMTT-stimulated insulin secretion / glucagon secretion after MMTT: Cohort 1, Day 4
Method: as §2, §1, §3
MMTT provides a fixed composition of protein, carbohydrates and fat, and is meant to mimic “normal” meal. It generally consists of 30.2 g protein, 19.6 g of fat, 75 g of carbohydrates with 6.6. g of fiber, totaling 612 kCal. It requires a standardized dinner the night before the test, 12 h fasting prior to the test, and standardized breakfast consumed (<30 min) at 7 AM (solid meal) consisting of pre-determined quantities of carbohydrates, proteins and fats. Sampling is done at −15, 10, 20, 30, 60, 75, 120, 180, and 240 min.
The primary endpoint was change in glucose AUC (0-4 h) versus baseline compared to prednisolone following a standardized mixed meal tolerance test (MMTT) on Days −1, 4, 27, and 31. The change from baseline in glucose AUC (0-4 h) was analyzed using a mixed model repeated measures (MMRM) with baseline included as covariate. […]

[6] = safety and clinical outcomes in patients; assay type: in vivo, human
[7] = plasma pharmacokinetics in diabetic patients; assay type: in vivo, human; details: oral dosing
Method: as §1, with “days. […]” for “days.”

[8] = system: joint inflammation; assay: rat model of joint inflammation; assay type: in vivo; details: compared with prednisolone

SMILES: CC(C)[C@H](NC(=O)C(C)(F)F)[C@H](Oc1ccc2c(cnn2-c2ccc(=O)n(C)c2)c1)c1ccccc1 [AZD9567, 2,2-difluoro-N-[(1R,2S)-3-methyl-1-[1-(1-methyl-6-oxopyridin-3-yl)indazol-5-yl]oxy-1-phenylbutan-2-yl]propanamide]
- adrenocorticotropic hormone (ACTH) concentrations ([1]; Cohort 1, change from baseline): indicative of preserved hypothalamic-pituitary-adrenal (HPA) axis capacity
- cortisol change during treatment ([1]; Cohort 1, returning to baseline at follow-up): marked, target-related, reversible cortisol suppression
- effect on prednisolone-induced upregulation of TAT transcription ([2]; coadministered with prednisolone in primary human hepatocytes): dose-dependently reduces
- upregulation of transcription of tyrosine aminotransferase (TAT) [2]: does not upregulate
- increase in mean daily glucose relative to glycaemic targets for type 2 diabetes patients (70-180 mg/dl) ([3]; Cohort 1, 72 mg/day): within glycaemic targets
- HbAlc difference corresponding to mean daily glucose difference between AZD9567 and prednisolone ([3]; Cohort 1, 48-72 h, based on estimated Average Glucose (eAG) equation): 0.7%
- mean daily glucose increase as compared to prednisolone ([3]; Cohort 1: 72 mg/day AZD9567 vs 40 mg/day prednisolone): significantly lower
- differentiation on glycaemic control versus prednisolone (CGM) ([3]; Cohort 1: 72 mg/day AZD9567 vs 40 mg/day prednisolone, 3 days): clear and consistent differentiation
- HbAlc difference corresponding to mean daily glucose difference between AZD9567 and prednisolone ([3]; Cohort 2, lower dose, based on eAG equation): 0.4%
- mean daily glucose increase as compared to prednisolone ([3]; Cohort 2: 40 mg/day AZD9567 vs 20 mg/day prednisolone): lower
- differentiation on glycaemic control versus prednisolone (CGM) ([3]; Cohort 2: 40 mg/day AZD9567 vs 20 mg/day prednisolone, relative to Cohort 1): lower
- observed difference in mean daily glucose (CGM) vs prednisolone ([3]; at 48-72 hrs, Target Value 1.221 mmol/L, Lower Reference Value 0.599 mmol/L): 1.507 mmol/L
- inhibition of LPS-stimulated TNFα release [4]: similar
- difference in reduction of glucose AUC0-4h after MMTT (AZD9567 vs prednisolone) ([5]; Cohort 1, 24 h after last dose (Day 4), 95CI 0.01, 8.88, p=0.05): 4.54%
- MMTT-stimulated insulin secretion [5]: increased
- glucagon secretion after MMTT [5]: unaffected
- insulin:glucagon ratio ([5]; Cohort 1, MMTT, vs prednisolone): marked improvement
- absolute difference in reduction of glucose AUC0-4h after MMTT (AZD9567 vs prednisolone) ([5]; Cohort 1, 95% CI 9.40, 256.1, p=0.036): 132.95 mmol·min/L
- safety concerns following the analysis of Cohort 1 ([6]; Cohort 1, 72 mg/day for 3 days): No significant new safety concerns
- rate of treatment intensification (dose increase of current oral antidiabetic therapy, or start/addition of insulin) as compared to prednisone ([6]; diagnosed diabetic patients): lower rate
- incidence of hospitalization vs prednisone ([6]; heart failure patients): lower incidence
- incidence of progression to type 2 diabetes mellitus as compared to prednisone ([6]; population predisposed to type 2 diabetes mellitus): lower incidence
- elimination half-life in diabetic patients as compared to healthy volunteers in phase 1 study [7]: increased
- systemic exposure in diabetic patients as compared to healthy volunteers in phase 1 study [7]: higher
- anti-inflammatory effects in vivo in a rat model of joint inflammation [8]: similar

SMILES: C[C@]12C=CC(=O)C=C1CC[C@@H]1[C@@H]2[C@@H](O)C[C@@]2(C)[C@H]1CC[C@]2(O)C(=O)CO [prednisolone, reference compound]
- upregulation of transcription of tyrosine aminotransferase (TAT) [2]: upregulation
- differentiation on glycaemic control vs placebo on CGM ([3]; Cohort 3: 5 mg/day prednisolone vs placebo): No differentiation
- MMTT-stimulated insulin secretion [5]: lower
- glucagon secretion after MMTT [5]: increased
- systemic exposure in diabetic patients as compared to healthy volunteers in phase 1 study [7]: higher
